Results taken from patent US20070142298A1, “Tetrapeptide regulating blood glucose level in diabetes mellitus” (SANKT-PETERBURGSKAYA OBSCHESTVENNAYA ORGANIZATSIYA …, priority 2003, published 2007).
Residues, ends and D or L forms follow the SMILES beside them.

Assays:
Type in all cases: in vivo
[1] = system: rats with alloxan diabetes; assay: Course of alloxan diabetes in rats, treatment variant (Example 2)
Protocol: After estimation of glucose concentration in the blood all the animals were divided at random into 2 groups. Then all the animals were exposed to single intravenous administration 1 ml of alloxan solution (“Spofa”) in dose 35 mg/kg. In 15 days control animals were administered once a day intraperitoneally with 0.3 ml 0.9% NaCl solution, rats of the main group were administered with LysGlu-Asp-Trp-NH2 in dose 3 μg (in 0.3 ml of 0.9% NaCl solution) per rat during 11 days.

[2] = system: rats with alloxan diabetes; assay: Course of alloxan diabetes in rats, prophylaxis and treatment variant (Example 3)
Protocol: The experiment was carried out on 15 white mongrel male rats with the average body weight 375±35 g. The animals were divided randomly into 2 groups. Control animals were administered once a day intravenously with 0.3 ml of 0.9% NaCl solution, while the main group animals were administered with LysGlu-Asp-Trp-NH2 tetrapeptide in dose of 3 μg (in 0.3 ml of 0.9% NaCl solution) per rat during 7 days. After that all the animals were subject to single intravenous administration of 1 ml of alloxan solution (“Spofa”) in dose 35 mg/kg. Lys-Glu-Asp-Trp-NH2 tetrapeptide had been administered during 3 days following alloxan administration. After that […] were subject to the second Lys-Glu-Asp-Trp-NH2 tetrapeptide course from 18 day till day 28 (total 11 days) in the same dose.

[3] = system: rats with alloxan diabetes; assay: Insulin effect on blood glucose level in alloxan diabetes rats after tetrapeptide (Example 7)
Protocol: The study was conducted on 13 male rats, enrolled in the previous trial (treatment variant—28 days after completion of Lys-Glu-Asp-Trp-NH2 tetrapeptide administration). 8 healthy rats of the similar body weight constituted a separate group. All the animals were administered intravenously with insulin (0.3 units), and glucose concentration in their blood was estimated hereafter.

[4] = system: rats with alloxan diabetes; assay: Insulin level in blood of rats with alloxan diabetes (Example 5)
Protocol: The experiment was held on 18 white mongrel male rats weighing on average 375±35 g. After the estimation of the blood glucose level all the animals were divided at random into 2 groups. Then all the animals were subjected to single intravenous injection with 1 ml of alloxan solution (“Spofa”) in dose of 35 mg/kg. 15 days later control animals were daily intraperitonealy administered with 0.3 ml of 0.9% NaCl solution, rats of the main group—with tetrapeptide Lys-Glu-Asp-Trp-NH2 in dose of 3 μg (in 0.3 ml of 0.9% NaCl) per rat during 11 days.

[5] = system: rats with alloxan diabetes; assay: Glucose tolerance test (sugar curve) in alloxan diabetes rats (Example 6); details: 44th day after course completion
Protocol: The study was conducted on 13 male rats, enrolled in the previous tests (treatment variants—44 days after completion of tetrapeptide Lys-Glu-Asp-Trp-NH2 administration). 7 healthy rats with the same body weight constituted a separate group. All the animals were administered intravenously with 1 ml of 2% glucose solution, after that glucose concentration in their blood was estimated.

[6] = system: patients with diabetes mellitus; assay: Clinical application in patients with diabetes mellitus (Example 8)
Protocol: The investigation was carried out in 36 patients aged from 16 to 83 years (7 men, 29 women). In 23 patients there was diagnosed type 1 diabetes, in 13 patients—type 2 diabetes. The disease duration varied from 1 year to 30 years. 32 patients received insulin. The majority of the patients suffering diabetes mellitus entered the hospital decompensated. Blood glucose level in these patients on an empty stomach oscillated from […]; the glycosylated haemoglobin—from 7.8 to 12.7%. All the patients were prescribed a rigid diet. All the patients were stratified randomly into 2 groups, with respect to age, sex, duration and stage of the disease (Table 7). Alongside with standard method of treatment 16 patients were prescribed Lys-Glu-Asp-Trp-NH2 tetrapeptide in dose of 10 μg (in 1 ml of 0.9% NaCl solution) intramuscularly once a day for 10 days. 4 patients suffering type 2 diabetes mellitus were prescribed together with standard treatment course Lys-Glu-Asp-Trp-NH2 tetrapeptide in dose of 100 μg (1 tablet) twice a day before meals during 10 days. Patients of the control group were administered with 1 ml of 0.9% of NaCl solution as a placebo following the same scheme.

[7] = system: rats with alloxan diabetes; assay: Tetrapeptide in different doses on the course of alloxan diabetes in rats (Example 4); details: for Glucose concentration in blood, initial level: before alloxan; for Glucose concentration in blood, after tetrapeptide administration, day 1 / Glucose concentration in blood, after tetrapeptide administration, day 4 / Glucose concentration in blood, after tetrapeptide administration, day 7 / Glucose concentration in blood, after tetrapeptide administration, day 14 / Glucose concentration in blood, after tetrapeptide administration, day 21: 7 days; for Decrease of glucose level: dose 10 μg
Protocol: The study was performed on 23 white mongrel male rats weighing on average […]. All the animals were subject to single intravenous administration of 1 ml of alloxan (“Spofa”) solution in dose of […].
Then the animals were divided at random into 3 groups. Control animals were intraperitoneally administered with 0.3 ml of 0.9% NaCl solution once a day. Rats of the second and third group were administered with tetrapeptide Lys-Glu-Asp-Trp-NH2 in dose of 1 μg (in 0.1 ml of 0.9% NaCl solution) and 10 μg (in 1.0 ml of 0.9% NaCl solution) per rat during 7 days.

[8] = 3 μg per rat i.p. daily, 11 days
[9] = before alloxan and before treatment
[10] = 16 insulin-treated patients, 10 μg i.m. once a day, 10 days

## NCCCC[C@H](N)C(=O)N[C@@H](CCC(=O)O)C(=O)N[C@@H](CC(=O)O)C(=O)N[C@@H](Cc1c[nH]c2ccccc12)C(N)=O [Tetrapeptide Lys-Glu-Asp-Trp-NH2, lysyl-glutamyl-aspartyl-tryptophane amid] (H-KEDW-NH2)
[1]; [8]
  Glucose concentration in the blood, 8 days since the onset of tetrapeptide administration: 254.5 ± 16.2 mg %
  Glucose concentration in the blood, upon completion of peptide administration, day 1: 222.5 ± 10.3 mg %
  Glucose concentration in the blood, upon completion of peptide administration, day 9: 183.9 ± 10.5 mg %
  Glucose concentration in the blood, upon completion of peptide administration, day 18: 236.7 ± 10.3 mg %
  Glucose concentration in the blood, upon completion of peptide administration, day 28: 221.5 ± 11.2 mg %
  Glucose concentration in the blood, upon completion of peptide administration, day 44: 210.8 ± 9.3 mg %
  Glucose concentration in the blood, upon completion of peptide administration, day 58: 198.9 mg %
[1]; [9]
  Glucose concentration in the blood, initial level: 81.1 ± 3.8 mg %
[1]; before start of tetrapeptide
  Glucose concentration in the blood, 15 days after alloxan administration: 333.6 ± 12.4 mg %
[1]; vs control, alloxan diabetes animals
  Lethality decrease: two-fold lethality decrease
[1]; vs control, range 30-47.7%
  Decrease of the blood glucose level throughout the whole study: 38.4%
[2]; 2nd course (from 18th till 28th day)
  Glucose concentration in blood, after alloxan administration, day 28: 77.3 ± 1.3 mg %
[2]; 28th, 33rd, 40th day
  Blood glucose level after the second course: complete normalisation of the blood glucose level
[2]; after 1st course
  Glucose concentration in blood, after alloxan administration, day 5: 247.3 ± 17.2 mg %
  Glucose concentration in blood, after alloxan administration, day 14: 261.5 ± 39.5 mg %
[2]; after 2nd course
  Glucose concentration in blood, after alloxan administration, day 33: 90.7 ± 5.2 mg %
  Glucose concentration in blood, after alloxan administration, day 40: 107.7 ± 6.4 mg %
[2]; before treatment
  Glucose concentration in blood, initial level: 76.8 ± 1.1 mg %
[2]; during 2nd course (from 18th till 28th day)
  Glucose concentration in blood, after alloxan administration, day 21: 159.0 ± 32.6 mg %
[2]; healthy rats before alloxan, 3 μg per rat daily
  Glucose concentration in blood, 7 days from the onset of tetrapeptide administration (1 course): 94.0 ± 0.8 mg %
[2]; healthy rats, 7 days, before alloxan
  Effect on blood glucose level of healthy animals: did not lead to the decrease of blood glucose level
[3]; 28th day after course completion, before insulin
  Glucose concentration in blood, initial level: 221.5 ± 11.2 mg %
[3]; 28th day after course completion, insulin 0.3 units i.v.
  Glucose concentration in blood, 30 minutes after insulin administration: 123.6 ± 8.3 mg %
[3]; alloxan diabetes animals
  Decrease of the glucose level after insulin administration as compared to the control group: nearly two-fold decrease of the glucose level
[4]; [8]
  Insulin content in blood, 8 days since the onset of tetrapeptide administration: 3.1 ± 1.1 mkIU/ml
  Insulin content in blood, after the completion of tetrapeptide administration, day 1: 3.6 ± 0.7 mkIU/ml
  Insulin content in blood, after the completion of tetrapeptide administration, day 9: 3.2 ± 0.5 mkIU/ml
  Insulin content in blood, after the completion of tetrapeptide administration, day 18: 4.3 ± 0.5 mkIU/ml
  Insulin content in blood, after the completion of tetrapeptide administration, day 28: 4.1 ± 0.6 mkIU/ml
  Insulin content in blood, after the completion of tetrapeptide administration, day 44: 3.9 ± 1.1 mkIU/ml
[4]; 8 days of administration, higher than control
  Insulin content in the blood relative to control group: 3.9 fold
[4]; after course completion, no insulin in controls
  Amount of insulin in the blood at following estimations: 13-18%
[4]; [9]
  Insulin content in blood, initial level: 23.8 ± 2.8 mkIU/ml
[4]; before start of tetrapeptide
  Insulin content in blood, 15 days after alloxan administration: 1.5 ± 0.4 mkIU/ml
[5]
  Glucose tolerance test, 5 min after glucose administration: 301.2 ± 10.5
  Glucose tolerance test, 30 min after glucose administration: 205.1 ± 11.8
  Glucose tolerance test, 60 min after glucose administration: 201.5 ± 13.2
  Glucose tolerance test, 120 min after glucose administration: 164.2 ± 12.8
[5]; before i.v. 1 ml of 2% glucose
  Glucose tolerance test, initial level: 210.8 ± 9.3
[6]; 8 patients out of 16 treated with insulin
  Reduction of the insulin daily dose, on average: 8 units
[6]; [10]
  Decreased insulin dose necessary to achieve compensation (number of patients): 8
  Increased insulin dose necessary to achieve compensation (number of patients): 2
  The same insulin dose necessary to achieve compensation (number of patients): 6
[6]; Patient K.
  Decrease of daily insulin dose as compared to the initial level: 26 units
[6]; Patient K., at discharge
  Coagulogram indices: pronounced improvement in coagulogram indices
[6]; Patient K., type 2, 10 μg i.m. 10 days, 18th day, 10 μmol/l on admission
  Blood glucose level on an empty stomach at discharge: 5.9 mM
[6]; Patient K., 82 units on admission
  Daily dose of insulin at discharge: 56 units
[6]; Patient L.
  Blood glucose level after completion of the treatment course: remained within the norm
  Dose of diabeton: reduced two-fold
[6]; Patient L., type 2, oral 100 μg twice a day with 2 diabeton tablets, 11 μmol/l on admission
  Glucose level on an empty stomach on the second day: 6 mM
[6]; Patient M.
  Decrease of daily insulin dose as compared to the initial level: 8 units
[6]; Patient M., 40 units on admission
  Daily norm of insulin at discharge: 32 units
[6]; tetrapeptide in tablets
  Compensation in patients treated with oral anti-diabetic medicine: full compensation
[6]; tetrapeptide in tablets, 100 μg twice a day, 10 days
  Reduction of the dose of insulin: 25 units
[6]; tetrapeptide in tablets, patients on oral anti-diabetic medicine
  Reduction of dose of oral anti-diabetic preparations: reduced practically two-fold
[7]; 1 mkg group
  Glucose concentration in blood, after alloxan administration, day 7: 245.6 ± 12.3 mg %
  Glucose concentration in blood, after alloxan administration, day 14: 261.7 ± 12.3 mg %
  Glucose concentration in blood, initial level: 80.6 ± 2.8 mg %
[7]; 1 mkg per rat
  Glucose concentration in blood, after tetrapeptide administration, day 1: 228.3 ± 10.7 mg %
  Glucose concentration in blood, after tetrapeptide administration, day 4: 244.4 ± 12.2 mg %
  Glucose concentration in blood, after tetrapeptide administration, day 7: 269.4 ± 8.6 mg %
  Glucose concentration in blood, after tetrapeptide administration, day 14: 268.8 ± 12.4 mg %
  Glucose concentration in blood, after tetrapeptide administration, day 21: 272.5 ± 9.9 mg %
[7]; 10 mkg group
  Glucose concentration in blood, after alloxan administration, day 7: 247.2 ± 14.0 mg %
  Glucose concentration in blood, after alloxan administration, day 14: 252.2 ± 7.9 mg %
  Glucose concentration in blood, initial level: 83.9 ± 3.4 mg %
[7]; 10 mkg per rat
  Glucose concentration in blood, after tetrapeptide administration, day 1: 193.3 ± 6.7 mg %
  Glucose concentration in blood, after tetrapeptide administration, day 4: 212.2 ± 7.3 mg %
  Glucose concentration in blood, after tetrapeptide administration, day 7: 205.6 ± 8.4 mg %
  Glucose concentration in blood, after tetrapeptide administration, day 14: 240.0 ± 7.9 mg %
  Glucose concentration in blood, after tetrapeptide administration, day 21: 248.3 ± 13.5 mg %
[7]; day 1
  Decrease of glucose level: 30%
[7]; day 7
  Decrease of glucose level: 26%
